Test system: Plasmodium berghei
Test: Luciferase/luciferin-expressing antifolate-resistant parasites were used to infect a culture of HepG2 cells that were pre-incubated with compounds. Infected hepatocytes emit light due to the luciferase reaction. Assay results are presented as the percent inhibition of light emission compared to control. […]
Type: functional
Conditions: sporozoite; for IC90: read-out: LUCIFERASE INFECTION ASSAY - IC90
[1] = read-out: LUCIFERASE INFECTION ASSAY - IC50

SMILES | IC90 | IC50 [1] | further results
CCOc1ccc(/C=N/NC(=O)c2cc3c(s2)CCCC3)c(O)c1 | > 10 µM |  | IC50 (HEPG2TOX_HILL_SLOPE 3.02, HEPG2TOX_R_SQUARED 0.79, PBLUC_HILL_SLOPE 4.8, PBLUC_R_SQUARED 0.349, read-out: LUCIFERASE INFECTION ASSAY - IC50): 6.97 µM
Cc1cc(C)cc(N(CCC#N)C(=O)CSc2nc3cc(Cl)ccc3c(=O)n2Cc2ccccc2)c1 | > 10 µM | > 10 µM | 
CNc1nc2cnc(Nc3cccc(NC(C)=O)c3)cc2n1-c1cccc(F)c1 | > 10 µM |  | IC50 (HEPG2TOX_HILL_SLOPE 2.07, HEPG2TOX_R_SQUARED 0.855, PBLUC_HILL_SLOPE 1.72, PBLUC_R_SQUARED 0.4, read-out: LUCIFERASE INFECTION ASSAY - IC50): 3.92 µM
Brc1ccc(-c2csc3ncnc(NCc4ccc(-n5ccnc5)nc4)c23)cc1 | > 10 µM |  | IC50 (HEPG2TOX_HILL_SLOPE 1.16, HEPG2TOX_R_SQUARED 0.868, read-out: LUCIFERASE INFECTION ASSAY - IC50): > 10 µM
Cn1c(Sc2sccc2[N+](=O)[O-])nnc1C(F)(F)F | > 10.6 µM | > 10.6 µM | 
FC(F)(F)c1nc(NCCNc2ccccn2)c2ccccc2n1 | 5.48 µM |  | IC50 (HEPG2TOX_HILL_SLOPE 0.531, HEPG2TOX_R_SQUARED 0.801, PBLUC_HILL_SLOPE 0.677, PBLUC_R_SQUARED 0.347, read-out: LUCIFERASE INFECTION ASSAY - IC50): 0.214 µM
Cc1cccc(-n2c(SC(C)C(N)=O)nc3ccccc3c2=O)n1 (stereo not given) | > 10 µM | > 10 µM | 
Cc1nc(-c2ccc(CCNC(=O)CN3C(=O)NC(C)(c4ccc5ccccc5c4)C3=O)cc2)cs1 (stereo not given) | > 10 µM | > 10 µM | 
CCNC(=O)NC(=O)C(C)OC(=O)c1c(C)c(CC)nc2ccccc12 (stereo not given) | > 10 µM |  | IC50 (HEPG2TOX_HILL_SLOPE 14.2, HEPG2TOX_R_SQUARED 0.666, PBLUC_HILL_SLOPE 0.849, PBLUC_R_SQUARED 0.474, read-out: LUCIFERASE INFECTION ASSAY - IC50): 4.39 µM
CN1CCN(S(=O)(=O)c2cc(C(=O)NCc3ccccc3F)cc(-c3ccccc3)c2)CC1 | > 7.06 µM | 6.09 µM | 
COc1ccc(OC)c(CCNc2nc3cnc(-c4ccc(OC)nc4)cc3n2C)c1 | 2.85 µM |  | IC50 (HEPG2TOX_HILL_SLOPE 1.95, HEPG2TOX_R_SQUARED 0.873, PBLUC_HILL_SLOPE 2.34, PBLUC_R_SQUARED 0.799, read-out: LUCIFERASE INFECTION ASSAY - IC50): 1.11 µM
Cc1cc(C(=O)N/N=C2\C(=O)Nc3ccccc32)c(C)n1-c1ccc(F)cc1 | > 10 µM |  | IC50 (PBLUC_HILL_SLOPE 1.9, PBLUC_R_SQUARED 0.511, read-out: LUCIFERASE INFECTION ASSAY - IC50): 3.94 µM
N#CC(C#N)=C1C=C(c2ccc(O)cc2)Oc2ccccc21 | > 10 µM |  | IC50 (FFLUC_HILL_SLOPE 1.23, FFLUC_R_SQUARED 0.408, read-out: LUCIFERASE INFECTION ASSAY - IC50): > 10 µM
Clc1nc2ccccc2cc1/C=N/C1CCCCC1 | > 10 µM | > 10 µM | 
Nc1cccc2c1C(=O)N(C(=O)/C=C/c1cccc(F)c1)C2=O | > 10 µM |  | IC50 (HEPG2TOX_HILL_SLOPE 0.728, HEPG2TOX_R_SQUARED 0.696, PBLUC_HILL_SLOPE 1.8, PBLUC_R_SQUARED 0.344, read-out: LUCIFERASE INFECTION ASSAY - IC50): 8.07 µM
Cc1ccc(-c2nn(-c3ccccc3)cc2/C=C(/C(=O)c2ccccc2)c2nc3ccccc3s2)o1 | > 10 µM |  | IC50 (FFLUC_HILL_SLOPE 2.3, FFLUC_R_SQUARED 0.652, PBLUC_HILL_SLOPE 2.05, PBLUC_R_SQUARED 0.091, read-out: LUCIFERASE INFECTION ASSAY - IC50): > 10 µM
Cc1nc(C(=N)NOC(=O)c2c(-c3c(Cl)cccc3Cl)noc2C)cs1 | 1.24 µM |  | IC50 (HEPG2TOX_HILL_SLOPE 7.11, HEPG2TOX_R_SQUARED 0.0768, PBLUC_HILL_SLOPE 8.1, PBLUC_R_SQUARED 0.284, read-out: LUCIFERASE INFECTION ASSAY - IC50): 0.945 µM
Cc1ccc(Oc2c(C)nc(-c3ccccc3)nc2O)cc1 | 1.76 µM |  | IC50 (PBLUC_HILL_SLOPE 1.81, PBLUC_R_SQUARED 0.898, read-out: LUCIFERASE INFECTION ASSAY - IC50): 0.524 µM
O=S(=O)(NCc1nnc2n1-c1ccccc1CC2)c1ccc(C2CCCCC2)cc1 | > 10 µM | > 10 µM | 
CS(=O)(=O)Nc1ccc(-c2csc(NC(=O)c3ccc(CN4CCCCC4)cc3)n2)cc1 | > 10 µM |  | IC50 (PBLUC_HILL_SLOPE 15.3, PBLUC_R_SQUARED 0.202, read-out: LUCIFERASE INFECTION ASSAY - IC50): 9.15 µM
NC(=NC(=S)Nc1cc(Cl)ccc1Cl)c1ccccc1 | > 10.2 µM |  | IC50 (HEPG2TOX_HILL_SLOPE 6.22, HEPG2TOX_R_SQUARED 0.375, read-out: LUCIFERASE INFECTION ASSAY - IC50): > 10.2 µM
Cc1nnsc1C(=O)Nc1nc(C(F)(F)F)c(-c2ccccc2)s1 | > 8.91 µM |  | IC50 (HEPG2TOX_HILL_SLOPE 1.46, HEPG2TOX_R_SQUARED 0.922, PBLUC_HILL_SLOPE 11.5, PBLUC_R_SQUARED 0.414, read-out: LUCIFERASE INFECTION ASSAY - IC50): 8.03 µM
COc1ccc(-c2cnc3cnc(-c4cc(OC)cc(OC)c4)cn23)cc1 | 3.63 µM |  | IC50 (HEPG2TOX_HILL_SLOPE 2.43, HEPG2TOX_R_SQUARED 0.949, PBLUC_HILL_SLOPE 13, PBLUC_R_SQUARED 0.663, read-out: LUCIFERASE INFECTION ASSAY - IC50): 3.06 µM

SMILES | IC90 | IC50 [1] | further results
Cc1nnc(Sc2ncc([N+](=O)[O-])s2)n1-c1ccc(OCc2ccccc2)cc1 | > 7.76 µM | > 7.76 µM | 
O=C(Nc1ccc2c(c1)OC1(CCCCC1)O2)c1ccc[nH]c1=O | > 10 µM |  | IC50 (FFLUC_HILL_SLOPE 3.32, FFLUC_R_SQUARED 0.581, PBLUC_HILL_SLOPE 0.537, PBLUC_R_SQUARED 0.823, read-out: LUCIFERASE INFECTION ASSAY - IC50): 0.172 µM
CC1Cc2cc(C3=NNC(=Nc4ccccc4[N+](=O)[O-])SC3)ccc2N1S(C)(=O)=O (stereo not given) | > 10 µM | 5.32 µM | 
CCCCCCN(C(=O)COC(=O)c1c(C)[nH]c(C2CC2)nc1=O)c1nc(-c2ccccc2)cs1 | 4.6 µM |  | IC50 (PBLUC_HILL_SLOPE 8.31, PBLUC_R_SQUARED 0.597, read-out: LUCIFERASE INFECTION ASSAY - IC50): 3.53 µM
O=C(OC(C(=O)N1CCOCC1)c1ccccc1)c1cccc(-n2cccc2)c1 (stereo not given) | > 2 µM | > 2 µM | 
CC(C)c1ccc(CN2CCN(C(=O)CNC(=O)c3ccc(Br)o3)CC2)cc1 | > 10 µM |  | IC50 (PBLUC_HILL_SLOPE 3.89, PBLUC_R_SQUARED 0.276, read-out: LUCIFERASE INFECTION ASSAY - IC50): 9.05 µM
O=[N+]([O-])c1ccc(Oc2c(Cl)cc(S(=O)(=O)Nc3cccc(C(F)(F)F)c3)cc2Cl)c(Cl)c1 | > 6.09 µM |  | IC50 (FFLUC_HILL_SLOPE 1.65, FFLUC_R_SQUARED 0.655, read-out: LUCIFERASE INFECTION ASSAY - IC50): > 6.09 µM
O=C1Nc2ccc(Cl)cc2/C1=C/c1ccc(-c2ccccc2)cc1 | > 10 µM |  | IC50 (FFLUC_HILL_SLOPE 2.74, FFLUC_R_SQUARED 0.354, PBLUC_HILL_SLOPE 5.72, PBLUC_R_SQUARED 0.824, read-out: LUCIFERASE INFECTION ASSAY - IC50): 8.45 µM
CC1N(C)c2ccc(/C=C/c3cc[n+](C)cc3)cc2C1(C)C (stereo not given) | 4.04 µM | 3.32 µM | 
CC(C)(C)c1ccc(-c2cc3[nH]c(-c4ccccc4)cc(=O)n3n2)cc1 | 3.76 µM |  | IC50 (HEPG2TOX_HILL_SLOPE 2.71, HEPG2TOX_R_SQUARED 0.618, PBLUC_HILL_SLOPE 3.36, PBLUC_R_SQUARED 0.487, read-out: LUCIFERASE INFECTION ASSAY - IC50): 1.95 µM
CCOC(=O)c1cnc2c([N+](=O)[O-])cccc2c1O | 4 µM |  | IC50 (PBLUC_HILL_SLOPE 2.74, PBLUC_R_SQUARED 0.626, read-out: LUCIFERASE INFECTION ASSAY - IC50): 1.79 µM
Cc1c(C(=O)Nc2cccc(Cl)c2)sc2nc(C(F)(F)F)nn12 | > 9.15 µM | > 9.15 µM | 
Cc1ccc(Nc2ccnc(Nc3ccc(C)cc3)n2)cc1 | > 10 µM |  | IC50 (PBLUC_HILL_SLOPE 2.32, 3.33, PBLUC_R_SQUARED 0.458, 0.517, read-out: LUCIFERASE INFECTION ASSAY - IC50): 4.86 µM
CN(C)c1ccc(/C=C/c2ccc3c4ccccc4ccc3[n+]2-c2ccccc2)cc1 | 1.23 µM | 1.07 µM | 
Cc1ccc(C(=O)NC(c2ccccc2)c2ccccc2)s1 | > 10 µM | > 10 µM | 
Cc1cc(/C=C(\C#N)c2nc3ccccc3n2C)c(C)n1-c1ccc(Cl)c(C(F)(F)F)c1 | > 10 µM | > 10 µM | 
CCOc1ccc(C=C(c2nc3ccccc3s2)c2nc3ccccc3s2)c(O)c1 | > 10 µM | 6.72 µM | 
CC1(C)CCc2cc(/C=N/NC(=O)c3ccc(Cl)cc3)ccc2O1 | > 9.63 µM |  | IC50 (FFLUC_HILL_SLOPE 0.306, FFLUC_R_SQUARED 0.456, PBLUC_HILL_SLOPE 2.8, PBLUC_R_SQUARED 0.043, read-out: LUCIFERASE INFECTION ASSAY - IC50): 6.8 µM
O=C(C1CCCN(C2=NS(=O)(=O)c3ccccc32)C1)N1CCOCC1 (stereo not given) | > 10 µM | > 10 µM | 
CCC(C)(C)C1CCc2c(sc(NC(=O)CN3CCOCC3)c2C#N)C1 (stereo not given) | 8.57 µM |  | IC50 (PBLUC_HILL_SLOPE 4.77, PBLUC_R_SQUARED 0.355, read-out: LUCIFERASE INFECTION ASSAY - IC50): 5.41 µM
Cc1cc(NC(=O)CCNC(C)c2ccc(CC(C)C)cc2)no1 (stereo not given) | > 10 µM | > 10 µM | 
Cc1nn(C)c(NC(=O)c2ccc(Cl)cc2)c1Br | > 10 µM |  | IC50 (PBLUC_HILL_SLOPE 41, PBLUC_R_SQUARED 0.305, read-out: LUCIFERASE INFECTION ASSAY - IC50): > 10 µM
